pKi: −log10 of the molar value. Structures can show the parent of a compound that is named as a salt.
Target: human tryptase
Experiment: Inhibition of human tryptase (apparent dissociation constant, chromogenic substrate tos-Gly-Pro-arg-pNA)
Type: biochemical
Details: apparent dissociation constant in presence of substrate; heparin 0.1–50 μg/ml; equilibrium conditions; read-out: Kiapp
From the text: The documented pathophysiological effects of mast cell tryptase are caused directly by the enzymatic activity of the protease. Accordingly, they are reduced or blocked by inhibitors which inhibit the enzymatic activity of the tryptase. A suitable measure for the affinity of a reversible inhibitor to the target protease is the equilibrium dissociation constant Ki of the enzyme-inhibitor complex. This Ki value can be determined via the effect of the inhibitor on the tryptase-induced cleavage of a chromogenic peptide-p-nitroanilide substrate or a fluorogenic peptide-aminomethylcoumarin substrate.
The dissociation constants for the tryptase-inhibitor complexes are determined under equilibrium conditions in accordance with the general proposals of Bieth (Bieth J G, Pathophysiological Interpretation of kinetic constants of protease inhibitors, Bull. Europ. Physiopath. Resp. 16:183–195, 1980) and the methods of Sommerhoff et al. (Sommerhoff C P et al., A Kazal-type inhibitor of human mast cell tryptase: Isolation from the medical leech Hirudo medicinalis, characterization, and sequence analysis, Biol. Chem. Hoppe-Seyler 375: 685–694, 1994).
Human tryptase is isolated from lung tissue or prepared recombinantly; the specific activity of the protease, determined by titration, is usually greater than 85% of the theoretical value. In the presence of heparin (0.1–50 μg/ml) for stabilizing the protease, constant amounts of the tryptase are incubated with increasing amounts of the inhibitors. After an equilibrium between the reaction partners has formed, the remaining enzyme activity after addition of the peptide-p-nitroanilide substrate tos-Gly-Pro-argpNA is determined and the cleavage of the latter is monitored at 405 nm for 3 min. Alternatively, the remaining enzymatic activity can also be determined using fluorogenic substrates. The apparent dissociation constants Kiapp (i.e. in the presence of substrate) are subsequently determined by adapting the enzyme rates to the general equation for reversible inhibitors (Morrison J F, Kinetics of the reversible inhibition of enzyme-catalyzed reactions by tight-binding inhibitors, Biochim. Biophys. Acta 185, 269–286, 1969) using non-linear regression: V1/V0=1−{Et+It+Kiapp−[(Et+It+Kiapp)^2−4EtIt]^1/2}/2Et V1 and V0 are the rates in the presence and absence, respectively, of the inhibitor, and Et and It are the tryptase and inhibitor concentrations, respectively.
The apparent dissociation constants determined for the compounds according to the invention are shown in Table A below, where the numbers of the compounds correspond to the numbers of the compounds in the examples.

SMILES | pKi
NCc1ccc(CNC(=O)N2CCN(C(=O)OCC#Cc3cccc(C#CCOC(=O)N4CCN(C(=O)NCc5ccc(CN)cc5)CC4)c3)CC2)cc1 [Compound 2, 1,3-Bis[4-(4-aminomethylbenzylaminocarbonyl)-1-piperazinylcarbonyl-1-oxyprop-2-ynyl]-benzene Dihydrochloride] | 8.00
NCc1ccc(CNC(=O)OCC#Cc2ccccc2C#CCOC(=O)NCc2ccc(CN)cc2)cc1 [Compound 6, 1,2-Bis-(4-aminomethylbenzylaminocarbonyl-1-oxyprop-2-ynyl)-benzene Dihydrochloride] | 6.52
NCC1CCC(C(=O)N2CCN(C(=O)OCC#Cc3ccc(C#CCOC(=O)N4CCN(C(=O)C5CCC(CN)CC5)CC4)cc3)CC2)CC1 (stereo not drawn) [Compound 1, 1,4-Bis[4-(trans-4-aminomethylcyclohexylcarbonyl)-1-piperazinylcarbonyl-1-oxyprop-2-ynyl]benzene Dihydrochloride] | 8.52
NCc1ccc(CNC(=O)OCC#Cc2cscc2C#CCOC(=O)NCc2ccc(CN)cc2)cc1 [Compound 7, 3,4-Bis-(4-aminomethylbenzylaminocarbonyl-1-oxyprop-2-ynyl)-thiophene Dihydrochloride] | 6.92
NCc1ccc(CNC(=O)N2CCN(C(=O)OCC#Cc3ccccc3C#CCOC(=O)N3CCN(C(=O)NCc4ccc(CN)cc4)CC3)CC2)cc1 [Compound 4, 1,2-Bis[4-(4-aminomethylbenzylaminocarbonyl)-1-piperazinylcarbonyl-1-oxyprop-2-ynyl]-benzene Dihydrochloride] | 8.52
NCc1cccc(CNC(=O)OCC#Cc2ccc(C#CCOC(=O)NCc3cccc(CN)c3)o2)c1 [Compound 9, 2,5-Bis-(3-aminomethylbenzylaminocarbonyl-1-oxyprop-2-ynyl)-furan Dihydrochloride] | 8.12
NCc1ccc(CNC(=O)OCC#Cc2cccc(C#CCOC(=O)NCc3ccc(CN)cc3)c2)cc1 [Compound 5, 1,3-Bis-(4-aminomethylbenzylaminocarbonyl-1-oxyprop-2-ynyl)-benzene Dihydrochloride] | 7.49
NCc1ccc(CNC(=O)OCC#Cc2ccc(C#CCOC(=O)NCc3ccc(CN)cc3)o2)cc1 [Compound 8, 2,5-Bis-(4-aminomethylbenzylaminocarbonyl-1-oxyprop-2-ynyl)-furan Dihydrochloride] | 7.10
NC[C@H]1CC[C@H](C(=O)N2CCN(C(=O)OCC#Cc3ccccc3C#CCOC(=O)N3CCN(C(=O)[C@H]4CC[C@H](CN)CC4)CC3)CC2)CC1 [Compound 3, 1,2-Bis[4-(trans-4-aminomethylcyclohexylcarbonyl)-1-piperazinylcarbonyl-1-oxyprop-2-ynyl]benzene Dihydrochloride] | 6.70

Next, values leading:

pKi | SMILES
6.48 | NCc1ccc(CC(=O)C#CC(N)c2ccccc2C(N)C#CC(=O)Cc2ccc(CN)cc2)cc1 (centres unmarked) [Compound 14, 1,2-Bis-(4-aminomethylbenzylcarbonyl-1-aminoprop-2-ynyl)-benzene Dihydrochloride]
7.89 | NCc1ccc(CNC(=O)COCC#Cc2cccc(C#CCOCC(=O)NCc3ccc(CN)cc3)c2)cc1 [Compound 12, 1,3-Bis-(4-aminomethylbenzylaminocarbonylmethyl-1-oxyprop-2-ynyl)-benzene Dihydrochloride]
6.89 | NCc1ccc(CC(=O)C#CC(N)c2ccc(C(N)C#CC(=O)Cc3ccc(CN)cc3)cc2)cc1 (centres unmarked) [Compound 13, 1,4-Bis-(4-aminomethylbenzylcarbonyl-1-aminoprop-2-ynyl)-benzene Dihydrochloride]
7.52 | NCc1ccc(CNC(=O)COCC#Cc2ccc(C#CCOCC(=O)NCc3ccc(CN)cc3)cc2)cc1 [Compound 11, 1,4-Bis-(4-aminomethylbenzylaminocarbonylmethyl-1-oxyprop-2-ynyl)-benzene Dihydrochloride]
6.82 | NCc1cccc(CNC(=O)OCC#Cc2cscc2C#CCOC(=O)NCc2cccc(CN)c2)c1 [Compound 10, 3,4-Bis-(3-aminomethylbenzylaminocarbonyl-1-oxyprop-2-ynyl)-thiophene Dihydrochloride]

Reference: patent US6960588B1, “Tryptase inhibitors” (Altana Pharma AG, priority 1999, dated 2005)
